US20210228621A1, “COMPOSITION FOR SKIN WOUNDS” (SUMITOMO SEIKA CHEMICALS CO., LTD., priority 2018, published 2021)

Assay: CO concentration of the CO-containing compositions analyzed by gas chromatography
Assay type: physicochemical
Conditions: about 2 atm; for CO concentration of liquid phase obtained by actual measurement: solvent H2O; for CO concentration in liquid phase obtained by actual measurement: solvent carbomer aqueous solution; for CO concentration of IPM: solvent isopropyl myristate
Description: (§1) Pure water (2.5 mL) was placed in a vial. (3 mL, produced by Maruemu Corporation), and the vial was sealed with a rubber stopper and an aluminum seal. Next, a gas (N2 balance) having an arbitrarily adjusted CO concentration was collected in a Tedlar bag (1 L, produced by AS ONE Corporation). The air in the gas phase in the vial was replaced with the gas in the Tedlar bag until pressure reached about 2 atm by using a gas-tight syringe (M-GAN500, produced by Ito Corporation). Subsequently, the resulting product was allowed to stand until CO in the gas phase was dissolved in the liquid phase to reach equilibrium.
The CO concentration of the compositions was analyzed by gas chromatography (GC-2014 FID produced by Shimadzu Corporation).
as §1, with “Isopropyl myristate (IPM: Wako first grade, produced by Fujifilm Wako Pure” for “Pure”, “Chemical Corporation)” for “water”, “vial” for “vial.”, “(MS-GAN500,” for “(M-GAN500,”
The CO concentration of the obtained compositions was analyzed by gas chromatography (GC-2014 FID produced by Shimadzu Corporation). When the CO (%) in the gas phase in the Tedlar bag was 18%, the CO concentration of IPM was 1500 μM. When the CO (%) in the gas phase in the Tedlar bag was 100%, the CO concentration of IPM was 9000 μM.
as §1, with “The carbomer aqueous solution” for “Pure water”, “vial” for “vial.”, “(MS-GAN500,” for “(M-GAN500,”
as §1, with “The hydroxyethyl cellulose aqueous solution” for “Pure water”, “vial” for “vial.”, “(MS-GAN500,” for “(M-GAN500,”
The CO concentration of the obtained CO-containing compositions was analyzed by gas chromatography (GC-2014 FID produced by Shimadzu Corporation). When the CO (%) in the gas phase in the Tedlar bag was 100%, the CO concentration in the hydroxyethyl cellulose aqueous solution was 1500 μM.

[1] = CO in gas phase in Tedlar bag 8% (theoretical value)
[2] = CO in gas phase in Tedlar bag 100% (theoretical value)

## [C-]#[O+] [CO, carbon monoxide]
[1]
  CO concentration of liquid phase obtained by actual measurement: 100 µM
  CO concentration in liquid phase obtained by actual measurement: 100 µM
CO in gas phase in Tedlar bag 34% (theoretical value)
  CO concentration of liquid phase obtained by actual measurement: 500 µM
CO in gas phase in Tedlar bag 67% (theoretical value)
  CO concentration of liquid phase obtained by actual measurement: 1000 µM
[2]
  CO concentration of liquid phase obtained by actual measurement: 1500 µM
  CO concentration in liquid phase obtained by actual measurement: 1500 µM
CO in gas phase in Tedlar bag 35% (theoretical value)
  CO concentration in liquid phase obtained by actual measurement: 500 µM
Solvent hydroxyethyl cellulose aqueous solution, CO in gas phase in Tedlar bag 100%
  CO concentration in the hydroxyethyl cellulose aqueous solution: 1500 µM
CO in gas phase in Tedlar bag 18%
  CO concentration of IPM: 1500 µM
CO in gas phase in Tedlar bag 100%
  CO concentration of IPM: 9000 µM
